{
  "source": "patent US20240390529A1",
  "about": "“DUAL-MODE PROBE FOR DETECTING HYDROGEN SULFIDE AND USE THEREOF” (KYUNGPOOK NATIONAL UNIVERSITY INDUSTRY-ACADEMIC COOPERATION …, priority 2022, published 2024)",
  "key": {"[1]": {"test": "Biodistribution in normal BALB/c mice (γ-counter)", "format": "in vivo", "experimental": "BALB/c mice (male, 9 weeks old) were used to investigate the systemic distribution and clearance rate of ^64Cu-ATSM-FITC (6). ^64Cu-ATSM-FITC (6) with a radioactivity of 0.56 to 0.74 MBq in a saline solution (5% DMSO, 200 μL) was injected into mice through the tail vein under anesthesia. […] Blood was drawn, and organs comprising heart, lung, muscle, fat, bone, spleen, kidney, liver, intestine, and brain were harvested, weighed, and analyzed by using a γ-counter (Wallac Wizard 1480, PerkinElmer, France). Radioactivity was calculated as percentage of injected dose per gram (% ID/g).\nThe distribution of ^64Cu-ATSM-aniline in the body was confirmed by using the same method as described in Experimental Methods 5 and 7 above."}, "[2]": {"test": "Lipophilicity, octanol-PBS partitioning", "format": "physicochemical", "experimental": "(§1) The ligand ATSM-FITC(4) was radiolabeled with ^64CuCl2 ions in 0.1M ammonium acetate buffer (pH 6.8) at 60° C., with a radiochemical yield of >97% (FIG. 3). Among the various positron-emitting radioisotopes of copper (^60Cu, ^61Cu, ^62Cu, or ^64Cu), Cu-64 has a moderately long half-life (12.7 hours) and a decay mode favorable for PET imaging (17.8% β+ decay). […] The proportion of demetalized ^64CuS in the intact ^64Cu-ATSM-FITC(6) complex may be easily quantified by radio-TLC analysis. The Rf value of ^64Cu-ATSM-FITC(6) was 0.72 on a silica plate with mobile phase (ethyl acetate methanol (95:5)), and ^64CuS remained at the origin of the TLC plate (FIG. 22). As the concentration of H2S increased, the decomplexation percentage of ^64Cu-ATSM-FITC(6) increased proportionally and reached a plateau at 20 μM of H2S (FIG. 15C). […] The lipophilicity of the radiotracer was measured using the general octanol-PBS partitioning method."}, "[3]": {"test": "Decomplexation of radiolabeled probe by H2S (radio-TLC)", "experimental": "as §1"}, "[4]": {"tested_on": "brain H2S", "test": "Animal PET/CT brain imaging, normal and AOAA-treated BALB/c mice", "format": "in vivo", "details": "1 hour after injection", "experimental": "Male BALB/c mice (6 to 9 weeks old) were purchased from Hyochang Bioscience (Daegu, Korea). All mice were housed at 20 to 24° C. together with sufficient water and commercial food under a 12-h day/night cycle. For studies on H2S inhibition, male BALB/c mice were injected intraperitoneally with AOAA ((O-(carboxymethyl) hydroxylamine hemihydrochloride, 10 mg/kg, Sigma-Aldrich (C13408-1G)), 1 hour before administered with ^64Cu-ATSM-FITC(6) into the tail vein.\nAnimal PET/CT images were obtained by using a nanoScan PET/CT scanner (PET 82S, Mediso, Budapest, Hungary). Radiolabeled ^64Cu-ATSM-FITC(6) (˜11 MBq, 200 μL of 5% DMSO/PBS) was injected via tail vein into normal and AOAA-treated BALB/c mice (n=4), and the mice were scanned for 20 minutes at 1 hour after the injection. For PET image-based quantification, regions of interest (ROIs) were manually drawn on the whole brain.\nDetection was performed in 1:3 matching smode with four iterations with six subsets. Analysis of the acquired PET/CT images was performed by using the Mediso InterView Fusion software package. The uptake of ^64Cu-ATSM-FITC(6) in each tissue was normalized to the administered radioactive dose and animal body weight and expressed as the average percent injected dose per gram (% ID/g)."}, "[5]": {"tested_on": "brain H2S", "test": "PET/CT imaging in Parkinson's disease rat model", "format": "in vivo, SD rats", "details": "PET/CT 1 hour after injection of about 1 mCi", "experimental": "The Parkinson's disease-induced rat model was prepared by taking 7-week-old SD rats and injecting 6-hydroxydopamine (6-OHDA) into the medial forebrain bundle using a Hamilton syringe after drilling a small 1.5 mm hole in the rat's skull near the parietal region at 8 weeks of age.\nIn addition, the uptake pattern was also different between normal rats and the Parkinson's disease rat model (FIG. 23)."}, "[6]": {"test": "In vitro stability in FBS and PBS (radio-TLC demetalization)", "format": "in vitro ADME", "details": "37° C.", "experimental": "^64Cu-ATSM-FITC(6) (10 μL, 37 MBq) was first mixed with FBS (500 μL) or PBS (pH 7.4) at the same volume, and the mixture was incubated at 37° C. Demetalization was monitored using radio-TLC (silica, MeOH:EtOAc=5:95) for up to 12 hours.\nRadioactively labeled ^64Cu-ATSM-FITC(6) (10 μL, 37 MBq) was mixed with 100 μL of FBS or PBS at pH 7.4 in the same amount and incubated at 37° C. using a Thermomixer (500 rpm). In addition, demetalization was measured by radio-TLC (silica, MeOH:EtOAC=5:95) every 4 hours for up to 24 hours."}, "[7]": {"tested_on": "brain H2S", "test": "LPS neuroinflammation model, PET imaging and γ-counter quantification of brain hemispheres", "format": "in vivo, mice", "details": "LPS-treated animals", "experimental": "Mice were mounted in a stereotaxic frame under isoflurane anesthesia. Sterile saline (control) or LPS (5 mg/mL, Sigma-Aldrich, Saint Louis, MO, USA, catalog number: L2630) was injected unilaterally into the right striatum (anterior-posterior [AP], 0.5 mm, medial) of each mouse by using a 28-gauge Hamilton syringe attached to an automatic microinjector. Injection was carried out at a rate of 0.2 μL/min for 10 minutes. After each injection, the needle was left in place for 5 minutes before being slowly retracted.\nBrain inflammation and control models were prepared 2 days prior to the study on PET imaging (n=5 each). ^64Cu-ATSM-FITC(6) (˜18 MBq, 200 μL of 5% DMSO/PBS) was injected into mice, and the mice were scanned for 10 minutes at 10 minutes after the injection. In addition, Sprague Dawley rats were injected with radiolabeled ^64Cu-ATSM-FITC(6) (˜18 MBq, 200 μL of 5% DMSO/PBS) through the tail vein, and the mice were scanned for 20 minutes at 1 hour after the injection. CT images were generated immediately without the use of additional contrast agents. All PET images were reconstructed by using the Mediso Tera-Tomo 3D iterative algorithm, together with corrections for interaction depth, radionuclide decay, detector normalization, decision dead time, and attenuation."}},
  "data": [
    {"molecule": "CNC([S-])=NN=C(C)C(C)=NN=C([S-])Nc1ccc(-c2c3ccc(=O)cc-3oc3cc(O)ccc23)c(C(=O)O)c1.[64Cu+2]", "note": "[^64Cu-ATSM-FITC(6)]", "values": [
      {"measurement": "total injected activity found in the whole brain", "setting": "[1]", "result": "more than 3.3%"},
      {"measurement": "brain uptake", "setting": "[1]; at 5 minutes, maintained up to 2 hours after injection", "result": "greater than 9 % ID/g"},
      {"measurement": "uptake in the heart, lungs, and kidneys", "setting": "[1]; initially high", "result": "gradually decreased over time"},
      {"measurement": "log D7.4", "setting": "[2]", "result": "1.70±0.05"},
      {"measurement": "reaction with H2S", "setting": "[3]; forms insoluble ^64CuS precipitate", "result": "reacted immediately"},
      {"measurement": "H2S concentration at which decomplexation percentage reached a plateau", "setting": "[3]; radio-TLC", "result": 20, "unit": "µM"},
      {"measurement": "brain uptake in PET imaging", "setting": "[4]; AOAA-treated mice (10 mg/kg i.p.)", "result": "11.4±2.0", "unit": "% ID/g"},
      {"measurement": "brain uptake in PET imaging", "setting": "[4]; control mice", "result": "15.0±1.8", "unit": "% ID/g"},
      {"measurement": "uptake in brain regions in Parkinson's disease rat model versus normal rats", "setting": "[5]", "result": "significantly lower"},
      {"measurement": "stability in FBS and PBS", "setting": "[6]", "result": "high stability"},
      {"measurement": "degradation", "setting": "[6]; FBS and PBS, up to 24 hours after incubation", "result": "Less than 10%"},
      {"measurement": "increase of radioactivity at the injection site (right hemisphere) versus left hemisphere", "setting": "[7]", "result": 31, "unit": "%"}
    ]}
  ]
}
